Assay results taken from patent publication US20060142254A1, “Antipyretic preparation containing xylitol” (ROQUETTE FRERES, priority 2001, published 2006).

Columns and labels:
[1] = system: rabbits having received a dose of endotoxins equal to 12 EU/kg; assay: Pyrogen test in rabbits: lowering of the body temperature increase caused by intravenously injected endotoxins; assay type: in vivo, rabbit; conditions: xylitol 1.5 g/kg, ASPEGIC 100 mg/kg where present; for Difference compared with the positive control of contamination (%): lowering of the endotoxin-induced temperature increase versus Batch 2, endotoxins 12 EU/kg i.v., significant when greater than 5%; for Temperature increase (° C.): mean temperature difference, 3 rabbits per batch, endotoxins 12 EU/kg intravenously
Source text: Specifically, the pyrogen test in rabbits is the test described in the European Pharmacopoeia for verifying, in vivo, the apyrogenicity of certain molecules intended to be administered parenterally.
Thus, the applicant company, a producer of molecules intended to be administered parenterally, therefore used this test, which it has perfected, under the conditions described in the European Pharmacopoeia, in order to determine the body temperature-lowering effects of xylitol alone, and of xylitol combined with an antipyretic.
The experiment is carried out with batches of laboratory animals, in this instance here, rabbits.
The solutions to be injected are prepared in sterile water (water for injectable preparation—AGUETTANT).
The bottles of endotoxins (control standard Entotoxin or CSE—ENDOSAFE) contain 5 ml of endotoxins at 30 EU/ml with 120 ml of water for injectable preparation.
The contamination is calculated so as to observe a pyrogenic shock in the rabbit. This contamination is produced by intravenously injecting endotoxins in a proportion of 1.2 EU/ml, i.e. 12 EU/kg.
The antipyretic agent, in this instance aspirin, is prepared extemporaneously. 6.6 ml are added to 125 ml of endotoxins so as to obtain a dose equivalent to 100 mg/kg. The aspirin chosen is injectable ASPEGIC® (DL-lysine acetyl salicylate), manufactured by Laboratoires SYNTHELABO (LE PLESSIS ROBINSON), packed in proportion of 6 bottles of 2 g of powder and 6 vials of 5 ml of water for injectable preparation, for extemporaneous dissolution.
The xylitol is a batch of apyrogenic XYLISORB® manufactured by the applicant company. Apyrogenic dextrose monohydrate (marketed under the trademark LYCADEX® PF by the applicant company) is used as a control.
The rabbits are injected with a solution of xylitol at 150 g/l with water for injectable solution contaminated or not contaminated with the endotoxins. Five experiments are carried out with 3 rabbits per batch.

healthy rabbit = conditions: intravenous administration; cited from earlier work

| Compound | Difference compared with the positive control of contamination (%) [1] [%] | Temperature increase (° C.) [1] [°C] | effect on body temperature of the laboratory animal (healthy rabbit) |
| --- | --- | --- | --- |
| OC[C@@H](O)[C@H](O)[C@@H](O)CO [Batch 4, xylitol] | 7.5 | 2.73 | lowers the body temperature |
| CC(=O)Oc1ccccc1C(=O)O (racemic) [Batch 3, DL-lysine acetyl salicylate] | 46 | 1.57 | – |
| methylephedrine | – | – | lowers the body temperature |
